# Experimental data reported in ChEMBL document CHEMBL6182915, “Discovery of a Potent FLT3 Inhibitor (E)-4-(3-(3-Fluoro-4-(morpholinomethyl)styryl)-1H-indazol-6-yl)pyridin-2-amine for the Treatment of Acute Myeloid Leukemia with Multiple FLT3 Mutations” (J Med Chem, 2025).
# Experiments:
# Assay in all cases: cells
# MV4-11 [1] = conditions: Homo sapiens, MV4-11, 72 h
# MV4-11 [2] = conditions: Homo sapiens, MV4-11, 72 h; remark: listed apart in the source
# Description: Antiproliferative activity against human MV4-11 cells harboring FLT3-ITD mutant assessed as inhibition of cell growth incubated for 3 days by MTT assay
# MV4-11 [3] = conditions: Homo sapiens, MV4-11, 72 h, read-out: INH
compound,measurement,setting,value
Nc1cc(-c2ccc3c(-c4ccc(S(=O)(=O)N5CCOCC5)cc4)n[nH]c3c2)ccn1,IC50,MV4-11 [1],> 10 µM
same,IC50,MV4-11 [2],197 nM
O=C(c1ccc(/C=C/c2n[nH]c3cc(-c4ccnc5[nH]ccc45)ccc23)cc1)N1CCNCC1,IC50,MV4-11 [1],5.7 µM
same,IC50,MV4-11 [2],18.7 nM
CCc1nc(C(N)=O)c(Nc2ccc(N3CCC(N4CCN(C)CC4)CC3)c(OC)c2)nc1NC1CCOCC1 [GILTERITINIB],inhibition at 10 µM,MV4-11 [3],> 70%
Nc1cc(-c2ccc3c(/C=C/c4ccc(C(=O)N5CCOCC5)cc4)n[nH]c3c2)ccn1,IC50,MV4-11 [1],2.3 µM
same,IC50,MV4-11 [2],20.3 nM
O=C(c1ccc(/C=C/c2n[nH]c3ccc(-c4cccnc4)cc23)cc1)N1CCNCC1,IC50,MV4-11 [1],> 10 µM
same,IC50,MV4-11 [2],15.1 nM
O=C(c1ccc(/C=C/c2n[nH]c3ccc(-c4ccncc4)cc23)cc1)N1CCNCC1,IC50,MV4-11 [1],> 10 µM
same,IC50,MV4-11 [2],58.7 nM
Nc1cc(-c2ccc3c(-c4cnn(CCO)c4)n[nH]c3c2)ccn1,IC50,MV4-11 [1],> 10 µM
same,IC50,MV4-11 [2],222 nM
O=C(c1ccc(/C=C/c2n[nH]c3ccc(-c4ccccc4)cc23)cc1)N1CCNCC1,IC50,MV4-11 [1],> 10 µM
same,IC50,MV4-11 [2],55.3 nM
CN1CCN(Cc2ccc(/C=C/c3n[nH]c4cc(-c5ccnc(N)c5)ccc34)cc2)CC1,IC50,MV4-11 [1],1.6 µM
same,IC50,MV4-11 [2],16.5 nM
Nc1cc(-c2ccc3c(/C=C/c4ccncc4)n[nH]c3c2)ccn1,IC50,MV4-11 [1],6.9 µM
same,IC50,MV4-11 [2],18.4 nM
Nc1cc(-c2ccc3c(/C=C/c4ccc(CN5CCOCC5)c(Cl)c4)n[nH]c3c2)ccn1,IC50,MV4-11 [1],0.8 µM
same,IC50,MV4-11 [2],10.4 nM
Nc1cc(-c2ccc3c(/C=C/c4cccnc4)n[nH]c3c2)ccn1,IC50,MV4-11 [1],2.3 µM
same,IC50,MV4-11 [2],29.5 nM
Nc1cc(-c2ccc3c(/C=C/c4ccc(C(=O)N5CCNCC5)cc4)n[nH]c3c2)ccn1,IC50,MV4-11 [1],1.8 µM
same,IC50,MV4-11 [2],6.2 nM
Nc1cc(-c2ccc3c(/C=C/c4ccc(CN5CCOCC5)cc4)n[nH]c3c2)ccn1,IC50,MV4-11 [1],1.1 µM
same,IC50,MV4-11 [2],11.4 nM
CN1CCN(Cc2ccc(-c3n[nH]c4cc(-c5ccnc(N)c5)ccc34)cc2)CC1,IC50,MV4-11 [1],> 10 µM
same,IC50,MV4-11 [2],156 nM
Nc1ccc(-c2ccc3c(/C=C/c4ccc(C(=O)N5CCNCC5)cc4)n[nH]c3c2)cn1,IC50,MV4-11 [1],> 10 µM
same,IC50,MV4-11 [2],27.1 nM
COc1cc(/C=C/c2n[nH]c3cc(-c4ccnc(N)c4)ccc23)cc(OC)c1,IC50,MV4-11 [1],> 10 µM
same,IC50,MV4-11 [2],354 nM
Nc1cc(-c2cnc3c(/C=C/c4ccc(CN5CCOCC5)c(F)c4)n[nH]c3c2)ccn1,IC50,MV4-11 [1],0.9 µM
same,IC50,MV4-11 [2],25.6 nM
Nc1cc(-c2ccc3c(-c4ccc(N5CCOCC5)cc4)n[nH]c3c2)ccn1,IC50,MV4-11 [1],> 10 µM
same,IC50,MV4-11 [2],44.5 nM
O=C(c1ccc(/C=C/c2n[nH]c3cc(-c4ccccc4)ccc23)cc1)N1CCNCC1,IC50,MV4-11 [1],6.9 µM
same,IC50,MV4-11 [2],22.5 nM
Nc1cc(-c2ccc3c(/C=C/c4ccc(N5CCOCC5)cc4)n[nH]c3c2)ccn1,IC50,MV4-11 [1],3.4 µM
same,IC50,MV4-11 [2],9 nM
Nc1cc(-c2ccc3c(CCc4ccc(CN5CCOCC5)c(F)c4)n[nH]c3c2)ccn1,IC50,MV4-11 [1],> 10 µM
same,IC50,MV4-11 [2],219 nM
CCn1cc(-c2n[nH]c3cc(-c4ccnc(N)c4)ccc23)cn1,IC50,MV4-11 [1],> 10 µM
same,IC50,MV4-11 [2],163 nM
CN1CCN(c2ccc(/C=C/c3n[nH]c4cc(-c5ccnc(N)c5)ccc34)cc2)CC1,IC50,MV4-11 [1],2.8 µM
same,IC50,MV4-11 [2],6.4 nM
O=C(c1ccc(/C=C/c2n[nH]c3cc(-c4ccncc4)ccc23)cc1)N1CCNCC1,IC50,MV4-11 [1],3.4 µM
same,IC50,MV4-11 [2],12.9 nM
Nc1cc(-c2ccc3c(/C=C/c4ccccc4)n[nH]c3c2)ccn1,IC50,MV4-11 [1],6.1 µM
same,IC50,MV4-11 [2],39.8 nM
O=C(c1ccc(/C=C/c2n[nH]c3cc(-c4cccnc4)ccc23)cc1)N1CCNCC1,IC50,MV4-11 [1],> 10 µM
same,IC50,MV4-11 [2],16.5 nM
Nc1nccc(-c2ccc3c(/C=C/c4ccc(CN5CCOCC5)c(F)c4)n[nH]c3c2)n1,IC50,MV4-11 [1],0.6 µM
same,IC50,MV4-11 [2],10.7 nM
O=C(Cc1ccc(-c2ccc(OCCN3CCOCC3)cc2)cn1)NCc1ccccc1 [TIRBANIBULIN],inhibition at 10 µM,MV4-11 [3],> 70%
Nc1cc(-c2ccc3c(-c4ccc(CN5CCOCC5)cc4)n[nH]c3c2)ccn1,IC50,MV4-11 [1],> 10 µM
same,IC50,MV4-11 [2],87.7 nM
CN1CCN(c2ccc(-c3n[nH]c4cc(-c5ccnc(N)c5)ccc34)cc2)CC1,IC50,MV4-11 [1],> 10 µM
same,IC50,MV4-11 [2],54.9 nM
